# Assay results from patent US20200015498A1, “ANIMAL FEED WITH BETA ADRENERGIC AGONIST AND ISOQUINOLINE ALKALOID” (priority 2017, published 2020).
# How the values were obtained:
# Assay type in all cases: in vivo
# pigs [1] = assay: Fifth experiment: test four repeated with 1700 pigs of a different farm
# Experimental: (§1) In most countries of the world, the quality of the carcass (without innards and blood) is determined as of muscle area, fat mm at back, total analysis of fat content etc. for determining the price of the carcass per kg warm or cold carcass weight (depending on country). For this purpose, the animals are scanned in the slaughtering line by means of sensors or image-giving techniques, and the proportion of muscles and the thickness of the backbone are measured and converted into an equation which then calculates the proportion of lean meat in the entire carcass. In the EU, the carcasses can be assigned to different meat quality groups according to the following classification scheme: • S=Highest quality=>60.85% lean-meat • E=Premium Quality=58.75% lean-meat • U=High Quality=>55.9% lean-meat • R=Medium Quality=>53.9% lean-meat • O=Low Quality=>51.1% lean-meat • P=very low Quality=<51.1% lean-meat
# (§2) The following animal feed compositions were administered: • AFC1: Corn, maize, soybean meal, vitamine, enzyme and mineral mixture comprising: 17% protein 0.8% lysine • AFC2: Corn, maize, Corn, maize, soybean meal, vitamine, enzyme and mineral mixture comprising: 17% protein, 0.8% lysine and 1 mg isoquinoline alkaloid/kg feed (mainly sanguinarine) • AFC3: Corn, maize, soybean meal, vitamine, enzyme and mineral mixture comprising: 19% protein, 1% lysine and a beta adrenergic agonist (ractopamin as “Paylean®” in recommended dosage (®=reg. trademark of Eli Lilly and Co.) • AFC4: Corn, maize, soybean meal, vitamine, enzyme and mineral mixture comprising: 17% protein, 0.9% lysine, 1 mg isoquinoline alkaloid (mainly sanguinarine)/kg feed and a beta adrenergic agonist (ractopamin as “Paylean®” Paylean in recommended dosage)
# Test four was repeated with 1700 pigs of a different farm divided into four groups 1-4, each group comprising 425 pigs. The pigs were held in units of 25 animals. Different groups of pigs were fed with feeds of different compositions as described for the fourth experiment. The following table illustrates meat quality indicators.
# pigs [2] = assay: Sixth experiment: test four repeated with 1310 pigs of a further animal farm
# Experimental: as §1, §2
# Test four was repeated with 1310 pigs of a further animal farm divided into four groups 1-4, each group comprising 330 pigs. The pigs were held in 11 units of 30 animals. Different groups of pigs were fed with feeds of different compositions as described for the fourth experiment. The following table illustrates meat quality indicators.
# pigs [3] = assay: Second experiment: 4 groups of 50 pigs fed different food and additive combinations for 4 weeks until slaughter day
# Source text: In the second experimental test, 4 groups of 50 pigs were fed with different food and additive combinations for 4 weeks until slaughter day as presented in the table below. The Isoquinoline alkaloids in the feed of groups 2 and 3 mainly consisted of sanguinarine.
# pigs [4] = assay: Third experiment: meat quality classes of 120 pigs per group fed for the last four weeks until slaughter day
# Experimental: The following table illustrates meat quality indicators obtained for 120 pigs fed for the last four weeks until slaughter day added with a beta adrenergic agonist at recommended dosages of 7.5 mg/kg feed and having a protein enriched feed formulation comparing to 120 other pigs fed during the same time period with the same feed which in addition the beta adrenergic agonist is also added with isoquinoline alkaloids like sanguinarin.
# as §1
# pigs [5] = assay: Fourth experiment: 1500 pigs in four groups fed AFC1-AFC4, distribution in meat quality classes
# Experimental: as §1
# As a rule, during the last 4-week before slaughter day when beta adrenergic agonists are typically administered, an animal feed is administered which not only has a higher protein content but also a higher proportion of muscle-binding amino acids (e.g., lysine). For example, a manufacturer of a beta adrenergic agonist prescribes that the content of the limiting amino acid lysine and threonine in the feed must be about 30% higher than under “standard” conditions when the beta adrenergic agonist is administered. It is, however, known that only 30% of the amino acids added to the feed are resorbed and metabolized, the rest being lost.
# The test was performed with 1500 pigs divided into four groups 1-4, each group comprising 375 pigs. The pigs were held in 100 units of 15 animals per unit. Different groups of pigs were fed with feeds of different compositions. The following table illustrates meat quality indicators.
# as §2
# [6] = class O >51.1% lean-meat, feeds AFC2, AFC3, AFC4, control 4
# [7] = class P <51.1% lean-meat, feeds AFC2, AFC3, AFC4, control 0
# [8] = class E >58.75 % lean-meat, 120 pigs per group
# [9] = class O >51.10 % lean-meat, 120 pigs per group
# [10] = class P <51.10 % lean-meat, 120 pigs per group
# [11] = class R >53.90 % lean-meat, 120 pigs per group
# [12] = class U >55.90 % lean-meat, 120 pigs per group
smiles,measurement,setting,value
CC(CCc1ccc(O)cc1)NCC(O)c1ccc(O)cc1 (stereo not drawn) [ractopamine],Distribution of slaughtered pigs in meat quality class E,"pigs [1]; class E >58.75% lean-meat, feeds AFC2, AFC3, AFC4, control 30",35%
same,Distribution of slaughtered pigs in meat quality class O,pigs [1]; [6],2%
same,Distribution of slaughtered pigs in meat quality class P,pigs [1]; [7],0%
same,Distribution of slaughtered pigs in meat quality class R,"pigs [1]; class R >53.9% lean-meat, feeds AFC2, AFC3, AFC4, control 15",8%
same,Distribution of slaughtered pigs in meat quality class S,"pigs [1]; class S >60.85% lean-meat, Group 2 feed AFC2, Group 3 AFC3, Group 4 AFC4, 425 pigs per group, control 26",40%
same,Distribution of slaughtered pigs in meat quality class U,"pigs [1]; class U >55.9% lean-meat, feeds AFC2, AFC3, AFC4, control 25",15%
same,% of all pigs (carcasses classified as S and E quality),"pigs [1]; fifth experiment, control 56%",75%
same,Distribution of slaughtered pigs in meat quality class E,"pigs [2]; class E >58.75% lean-meat, feeds AFC2, AFC3, AFC4, control 33",38%
same,Distribution of slaughtered pigs in meat quality class O,pigs [2]; [6],1%
same,Distribution of slaughtered pigs in meat quality class P,pigs [2]; [7],0%
same,Distribution of slaughtered pigs in meat quality class R,"pigs [2]; class R >53.9% lean-meat, feeds AFC2, AFC3, AFC4, control 11",3%
same,Distribution of slaughtered pigs in meat quality class S,"pigs [2]; class S >60.85% lean-meat, Group 2 feed AFC2, Group 3 AFC3, Group 4 AFC4, 330 pigs per group, control 30",40%
same,Distribution of slaughtered pigs in meat quality class U,"pigs [2]; class U >55.9% lean-meat, feeds AFC2, AFC3, AFC4, control 22",18%
same,% of all pigs (carcasses classified as S and E quality),"pigs [2]; sixth experiment, control 63%",78%
same,Feed conversion ratio,"pigs [3]; 4 weeks until slaughter, isoquinoline alkaloids 1 mg/kg feed and/or ractopamin 7.5 mg/kg feed, control 2.78",2.62
same,Daily weight gain,"pigs [3]; 4 weeks until slaughter, isoquinoline alkaloids 1 mg/kg feed and/or ractopamin 7.5 mg/kg feed, control 753",852 g
same,live mass at slaughter day,"pigs [3]; after 4 weeks, isoquinoline alkaloids 1 mg/kg feed and/or ractopamin 7.5 mg/kg feed, soybean 15% (group 2), 17% (group 3), 20% (group 4), control 118",125.5 kg
same,Fraction lean meat,"pigs [3]; at slaughter, isoquinoline alkaloids 1 mg/kg feed and/or ractopamin 7.5 mg/kg feed, control 54.95",58.5%
same,"performance (daily weight gain, feed utilization, lean meat content) compared with the control group, in words","pigs [3]; second experiment, groups 2-4 versus group 1",significantly improves performance and increases the lean meat content and the feed utilization
same,% of all pigs in meat quality class E,pigs [4]; [8],41%
same,Number of pigs in meat quality class E,pigs [4]; [8],49
same,% of all pigs in meat quality class O,pigs [4]; [9],1%
same,Number of pigs in meat quality class O,pigs [4]; [9],1
same,% of all pigs in meat quality class P,pigs [4]; [10],0%
same,Number of pigs in meat quality class P,pigs [4]; [10],0
same,% of all pigs in meat quality class R,pigs [4]; [11],6%
same,Number of pigs in meat quality class R,pigs [4]; [11],7
same,% of all pigs in meat quality class S,"pigs [4]; class S >60.85 % lean-meat, 120 pigs per group",33%
same,Number of pigs in meat quality class S,"pigs [4]; class S >60.85 % lean-meat, 120 pigs per group, ractopamin 7.5 mg/kg feed, protein enriched feed",40
same,% of all pigs in meat quality class U,pigs [4]; [12],19%
same,Number of pigs in meat quality class U,pigs [4]; [12],23
same,numbers of S and E carcass classes as highest value carcasses,"pigs [4]; third experiment, sum of classes S and E",74%
same,Distribution of slaughtered pigs in meat quality class E,"pigs [5]; class E >58.75% lean-meat, feeds AFC2, AFC3, AFC4, control 35",39%
same,Distribution of slaughtered pigs in meat quality class O,pigs [5]; [6],1%
same,Distribution of slaughtered pigs in meat quality class P,"pigs [5]; class P <51.1% lean-meat, feeds AFC2, AFC3, AFC4, control 1",0%
same,Distribution of slaughtered pigs in meat quality class R,"pigs [5]; class R >53.9% lean-meat, feeds AFC2, AFC3, AFC4, control 10",2%
same,Distribution of slaughtered pigs in meat quality class S,"pigs [5]; class S >60.85% lean-meat, Group 2 feed AFC2, Group 3 AFC3, Group 4 AFC4, 375 pigs per group, control 35",38%
same,Distribution of slaughtered pigs in meat quality class U,"pigs [5]; class U >55.9% lean-meat, feeds AFC2, AFC3, AFC4, control 15",20%
same,% of all pigs distributed in classes S and E,"pigs [5]; fourth experiment, control 70%",77%
